Columns and labels:
[1] = system: ICR mice; test: 5-HTP induced head twitching mouse model; details: once a day for 14 days, 150 mg/Kg 5-HTP i.p. 0.5 h after last administration, counted in 20 min, blank control 34.1 ± 18.1, **P < 0.01
[2] = system: ICR mice; test: Tail suspension test of mice; details: once a day for 14 days, 1.5 h after last administration, last 4 min of 6 min, blank control 151.1 ± 20.1, **P < 0.01
[3] = system: ICR mice; test: Forced swimming test of mice; details: once a day for 14 days, 1.5 h after last administration, last 4 min of 6 min, blank control 148.1 ± 18.9, **P < 0.01
[4] = system: patients with depression; test: Clinical efficacy observation by reduction rate of HAM-D; type: in vivo, human; details: 40 patients, oral 1.5 mg nootkatone monomer/Kg/time, twice a day, 6 weeks
Excerpt: Forty patients were selected, wherein 20 were male and 20 were female, and their disease durations were from 1 month to 2 years. Diagnosis criteria of depression that conformed to Chinese Classification and Diagnostic Criteria of Mental Disorders scored […] according to the first 17 items in the Hamilton Depression Rating Scale (HAM-D) shown in Table 4. First-onset patients, or patients that had not taken antidepressants and antipsychotics and had not been subjected to electric shock therapy over the past week, and patients with depressive episodes of unipolar affective disorder, aged 20-50 years. Patients having depressive disorder caused by bipolar affective disorder and other causes, severe suicidal tendency, and severe abnormalities in laboratory tests (pregnant or lactating women) were eliminated.
Comment: 0 to 4 in the items of Standard for Evaluation and Point referred to the scores, and the standard for evaluation is: the total score <7 means normality; the total score between 7 and 17 means possible depression; the total score between 17 and 24 means definite depression; and the total score >24 means severe depression.
Nootkatone preparation was used to treat the 40 patients, and the administration manner was: orally taking, 1.5 mg nootkatone monomer/Kg/time, twice a day, and 6 weeks were one course of treatment. […] After 1 course of treatment, reduction rate of HAM-D was used to measure the curative efficacy of the traditional Chinese medicine on patients, reduction rate of HAM-D=(total scores before the treatment−total scores after the treatment)/total scores before the treatment×100%.
The standard of curative efficacy evaluation is hereinafter:
cure: reduction rate of HAMD is >75%;
improved: reduction rate of HAMD is from 25% to […];
invalid: reduction rate of HAMD is <25%.

[5] = system: ICR mice; details: intragastric once a day for 14 days, nootkatone 1-2 mg/Kg, Prozac 20 mg/Kg
[6] = 1 mg/Kg (small dose) intragastric
[7] = 1.5 mg/Kg (medium dose) intragastric
[8] = 2 mg/Kg (large dose) intragastric

Row | SMILES | Head-Twitching Number [1, 6] | Head-Twitching Number [1, 7] | Head-Twitching Number [1, 8] | Immobility Time, tail suspension test [2, 6] | Immobility Time, tail suspension test [2, 7] | Immobility Time, tail suspension test [2, 8] | Immobility Time, forced swimming test [3, 6] | Immobility Time, forced swimming test [3, 7] | Immobility Time, forced swimming test [3, 8] | Adverse reactions in patients [4] | Curative effective rate [4] [%] | Share of patients invalid (reduction rate of HAMD <25%) ([4]; 2 cases) [%] | Share of patients improved (reduction rate of HAMD from 25% to 50%) ([4]; 10 cases) [%] | Share of patients cured (reduction rate of HAMD >75%) ([4]; 14 cases) [%] | Share of patients significantly improved (reduction rate of HAMD from 51% to 75%) ([4]; 14 cases) [%] | Toxicity judged from weight and fur appearance of mice [5] | Head-Twitching Number ([1]; 20 mg/Kg intragastric) | Immobility Time, tail suspension test ([2]; 20 mg/Kg intragastric) | Immobility Time, forced swimming test ([3]; 20 mg/Kg intragastric) | Weight of mice before administration, one week and 2 weeks after administration [5]
1 | C=C(C)[C@@H]1CCC2=CC(=O)C[C@@H](C)[C@]2(C)C1 [Nootkatone, nootkatone] | 58.0 ± 26.2** Time | 60.2 ± 25.1** Time | 63.1 ± 22.5** Time | 84.0 ± 17.6** S | 80.2 ± 21.6** S | 75.1 ± 19.6** S | 74.0 ± 26.9** s | 70.2 ± 22.3** s | 66.1 ± 21.6** s | no case has adverse reactions | 95 | 5 | 25 | 35 | 35 | neither nootkatone nor the positive drug Prozac has toxicity |  |  |  | 
2 | CNCCC(Oc1ccc(C(F)(F)F)cc1)c1ccccc1 (centres unmarked) [Prozac, fluoxetine, reference compound] |  |  |  |  |  |  |  |  |  |  |  |  |  |  |  |  | 57.9 ± 10.4** Time | 87.9 ± 22.0** S | 80.9 ± 20.4** s | no significant difference
